One experiment has as its system EGFR^del19+T790M+C797S. As to the kind of experiment: EGFR protein degradation test (Western blot) in Ba/F3 cells expressing mutant EGFR del19+T790M+C797S (DTC). The format is cell-based. The conditions noted are these: compounds at 0.1 μM and 1 μM, 24 hours, Western blot with EGFR antibody. On the procedure: (§1) The ability of the compounds of the present invention to degrade the mutant EGFR protein was confirmed in Ba/F3 cells expressing normal EGFR, mutant EGFR^del19+T790M+C797S or mutant EGFR^L858R+T790M+C797S. A Western blot test using the EGFR antibody was performed.
(§2) Specifically, Ba/F3 cells expressing EGFR were cultured in RPMI 1640 (Gibco, NY, USA) containing 10% fetal bovine serum (FBS, Gibco, NY, USA). Cells expressing normal EGFR, mutant EGFR^del19+T790M+C797S or mutant EGFR^L858R+T790M+C797S were treated with the compounds of the present invention at concentrations of 0.1 μM and 1 μM, respectively, for 24 hours. After that, it was washed twice with phosphate buffered saline (PBS) and SDS-PAGE was performed with 30 μg of cell lysate. After the protein separated on the gel was transferred to a nitrocellulose membrane, the expression level of the EGFR protein was confirmed using an EGFR antibody (Santa Cruz biotechnology, Santacruz, CA, USA). EGFR bands separated by Western blotting were quantitatively analyzed with Fluo-S MultiImager (Bio-Rad, Hercules, CA, USA).
On the technique in general: Immunoblotting shows a protein as a band on a membrane.

The next experiment deals with T1, EGFR^L858R+T790M+C797S (Homo sapiens, UniProt P00533, C797S/L858R/T790M).
T1 construct: expressed in transfected cells; host or cells: Ba/F3
T1 sequence (P00533 25-1210 T790M/C797S/L858R): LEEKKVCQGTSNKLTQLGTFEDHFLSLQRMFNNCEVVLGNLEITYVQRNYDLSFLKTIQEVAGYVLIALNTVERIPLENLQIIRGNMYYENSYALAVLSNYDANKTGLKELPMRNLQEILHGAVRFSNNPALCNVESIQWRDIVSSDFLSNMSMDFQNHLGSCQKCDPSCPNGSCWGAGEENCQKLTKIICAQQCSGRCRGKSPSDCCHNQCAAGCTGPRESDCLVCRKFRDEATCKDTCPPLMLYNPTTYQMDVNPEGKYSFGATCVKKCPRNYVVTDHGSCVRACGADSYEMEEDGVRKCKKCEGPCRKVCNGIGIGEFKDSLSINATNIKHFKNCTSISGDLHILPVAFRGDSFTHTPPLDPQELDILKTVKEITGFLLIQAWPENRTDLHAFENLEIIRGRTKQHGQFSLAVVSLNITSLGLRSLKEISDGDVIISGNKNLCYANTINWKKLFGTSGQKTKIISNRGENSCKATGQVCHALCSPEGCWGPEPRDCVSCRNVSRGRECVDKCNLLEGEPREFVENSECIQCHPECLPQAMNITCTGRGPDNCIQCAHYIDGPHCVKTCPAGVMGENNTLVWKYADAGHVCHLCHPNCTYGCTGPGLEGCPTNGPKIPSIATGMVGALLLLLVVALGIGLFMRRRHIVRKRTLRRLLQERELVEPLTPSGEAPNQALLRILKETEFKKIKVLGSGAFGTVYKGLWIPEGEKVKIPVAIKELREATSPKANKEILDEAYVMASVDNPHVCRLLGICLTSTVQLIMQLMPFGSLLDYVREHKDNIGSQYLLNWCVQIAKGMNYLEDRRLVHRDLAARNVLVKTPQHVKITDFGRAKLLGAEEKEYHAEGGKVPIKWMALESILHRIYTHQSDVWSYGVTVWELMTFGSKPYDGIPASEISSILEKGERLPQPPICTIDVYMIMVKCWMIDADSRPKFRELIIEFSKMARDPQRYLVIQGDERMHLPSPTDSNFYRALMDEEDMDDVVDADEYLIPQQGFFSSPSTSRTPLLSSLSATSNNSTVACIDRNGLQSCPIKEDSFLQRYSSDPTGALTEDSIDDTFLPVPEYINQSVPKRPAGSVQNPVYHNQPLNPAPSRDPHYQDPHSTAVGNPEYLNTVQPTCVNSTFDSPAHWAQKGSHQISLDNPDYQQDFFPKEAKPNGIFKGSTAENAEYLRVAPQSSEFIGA
The experiment can be described thus: EGFR protein degradation test (Western blot) in Ba/F3 cells expressing mutant EGFR L858R+T790M+C797S (LTC). The conditions noted are these: compounds at 0.1 μM and 1 μM, 24 hours, Western blot with EGFR antibody. The format is cell-based. On the procedure: as §1, §2

Consider `COc1cc(N2CCC3(CCN(CC(=O)N[C@H](C(=O)N4C[C@H](O)CC4C(=O)NCc4ccc(-c5scnc5C)cc4)C(C)(C)C)CC3)CC2)ccc1Nc1ncc(Cl)c(Nc2ccccc2N(C)S(C)(=O)=O)n1` (stereo in doubt) [Compound 31, (2R,4R)-1-((S)-2-(2-(9-(4-((5-chloro-4-((2-(N-methylmethylsulfonamido)phenyl)amino)pyrimidin-2-yl)amino)-3-methoxyphenyl)-3,9-diazaspiro[5,5]undecan-3-yl)acetamido)-3,3-dimethylbutanoyl)-4-hydroxy-N-(4-(4-methylthiazol-5-yl)benzyl)pyrrolidin-2-carboxamide], for which the “DTC (EGFR^del19+T790M+C797S) protein degradation” value (shortened to “DTC”) in the experiment with EGFR^del19+T790M+C797S is on record as “++ (Protein degradation > 80%)”. Besides, the “LTC (EGFR^L858R+T790M+C797S) protein degradation” value (“LTC” for short) at EGFR^L858R+T790M+C797S was “+ (Protein degradation 20~80%)”.

Regarding `COc1cc(N2CCN(CC3CCN(CC(=O)N[C@H](C(=O)N4C[C@H](O)CC4C(=O)NCc4ccc(-c5scnc5C)cc4)C4CC4)CC3)CC2)ccc1Nc1ncc(Cl)c(Nc2ccccc2N(C)S(C)(=O)=O)n1` (stereo in doubt) [Compound 55, (2R,4R)-1-((S)-2-(2-(4-((4-(4-((5-chloro-4-((2-(N-methylmethylsulfonamido)phenyl)amino)pyrimidin-2-yl)amino)-3-methoxyphenyl)piperazin-1-yl)methyl)piperidin-1-yl)acetamido)-2-cyclopropylacetyl)-4-hydroxy-N-(4-(4-methylthiazol-5-yl)benzyl)pyrrolidin-2-carboxamide], the “DTC” value in the experiment on EGFR^del19+T790M+C797S is “− (Protein degradation < 20%)”. Besides, the “LTC” value on EGFR^L858R+T790M+C797S was “− (Protein degradation < 20%)”.

Turning to `COc1cc(N2CCN(CC3CCN(CC(=O)N[C@H](C(=O)N4C[C@H](O)CC4C(=O)NCc4ccc(-c5scnc5C)cc4)C(C)C)CC3)CC2)ccc1Nc1ncc(Cl)c(Nc2ccccc2N(C)S(C)(=O)=O)n1` (stereo in doubt) [Compound 56, (2R,4R)-1-((2-(4-((4-(4-((5-chloro-4-((2-(N-methylmethylsulfonamido)phenyl)amino)pyrimidin-2-yl)amino)-3-methoxyphenyl)piperazin-1-yl)methyl)piperidin-1-yl)acetyl)-L-valyl)-4-hydroxy-N-(4-(4-methylthiazol-5-yl)benzyl)pyrrolidin-2-carboxamide], in the experiment with EGFR^del19+T790M+C797S, the “DTC” value is given as “+ (Protein degradation 20~80%)”. In addition, the “LTC” value on EGFR^L858R+T790M+C797S is “− (Protein degradation < 20%)”.

On to `COc1cc(N2CCN(CCCCC(=O)Nc3cccc4c3C(=O)N(C3CCC(=O)NC3=O)C4=O)CC2)ccc1Nc1ncc(Cl)c(Nc2ccccc2N(C)S(C)(=O)=O)n1` (centres unmarked) [Compound 1, 5-(4-(4-((5-chloro-4-((2-(N-methylmethylsulfonamido)phenyl)amino)pyrimidin-2-yl)amino)-3-methoxyphenyl)piperazin-1-yl)-N-(2-(2,6-dioxopiperidin-3-yl)-1,3-dioxoisoindolin-4-yl)pentanamide], for which, in the experiment with EGFR^del19+T790M+C797S, the “DTC” value is listed as “− (Protein degradation < 20%)”. Also, the “LTC” value on EGFR^L858R+T790M+C797S is on record as “− (Protein degradation < 20%)”.

`COc1cc(N2CCC(N3CCN(CCCCC(=O)Nc4cccc5c4C(=O)N(C4CCC(=O)NC4=O)C5=O)CC3)CC2)ccc1Nc1ncc(Cl)c(Nc2ccccc2N(C)S(C)(=O)=O)n1` (centres unmarked) [Compound 2, 5-(4-(1-(4-((5-chloro-4-((2-(N-methylmethylsulfonamido)phenyl)amino)pyrimidin-2-yl)amino)-3-methoxyphenyl)piperidin-4-yl)piperazin-1-yl)-N-(2-(2,6-dioxopiperidin-3-yl)-1,3-dioxoisoindolin-4-yl)pentanamide]: the “DTC” value in the experiment on EGFR^del19+T790M+C797S is listed as “+ (Protein degradation 20~80%)”. Further, on EGFR^L858R+T790M+C797S, the “LTC” value was “− (Protein degradation < 20%)”.

As for `COc1cc(N2CCC(N(C)CCCCOc3cccc4c3C(=O)N(C3CCC(=O)NC3=O)C4=O)CC2)ccc1Nc1ncc(Cl)c(Nc2ccccc2N(C)S(C)(=O)=O)n1` (centres unmarked) [Compound 3, N-(2-((5-chloro-2-((4-(4-((4-((2-(2,6-dioxopiperidin-3-yl)-1,3-dioxoisoindolin-4-yl)oxy)butyl)(methyl)amino)piperidin-1-yl)-2-methoxyphenyl)amino)pyrimidin-4-yl)amino)phenyl)-N-methylmethanesulfonamide], the “DTC” value with EGFR^del19+T790M+C797S is listed as “− (Protein degradation < 20%)”. Also, the “LTC” value at EGFR^L858R+T790M+C797S is listed as “− (Protein degradation < 20%)”.

Take `COc1cc(N2CCN(CCCCCCCCCCC(=O)Nc3cccc4c3C(=O)N(C3CCC(=O)NC3=O)C4=O)CC2)ccc1Nc1ncc(Cl)c(Nc2ccccc2N(C)S(C)(=O)=O)n1` (centres unmarked) [Compound 4, 11-(4-(4-((5-chloro-4-((2-(N-methylmethylsulfonamido)phenyl)amino)pyrimidin-2-yl)amino)-3-methoxyphenyl)piperazin-1-yl)-N-(2-(2,6-dioxopiperidin-3-yl)-1,3-dioxoisoindolin-4-yl)undecanamide]: the “DTC” value with EGFR^del19+T790M+C797S is “− (Protein degradation < 20%)”. For the same molecule, on EGFR^L858R+T790M+C797S, the “LTC” value is given as “− (Protein degradation < 20%)”.

In the case of `COc1cc(N2CCC(N3CCN(CCCCCCCCCCC(=O)Nc4cccc5c4C(=O)N(C4CCC(=O)NC4=O)C5=O)CC3)CC2)ccc1Nc1ncc(Cl)c(Nc2ccccc2N(C)S(C)(=O)=O)n1` (centres unmarked) [Compound 5, 11-(4-(1-(4-((5-chloro-4-((2-(N-methylmethylsulfonamido)phenyl)amino)pyrimidin-2-yl)amino)-3-methoxyphenyl)piperidin-4-yl)piperazin-1-yl)-N-(2-(2,6-dioxopiperidin-3-yl)-1,3-dioxoisoindolin-4-yl)undecanamide], in the experiment with EGFR^del19+T790M+C797S, the “DTC” value is “− (Protein degradation < 20%)”. For the same molecule, at EGFR^L858R+T790M+C797S, the “LTC” value was “− (Protein degradation < 20%)”.

Turning to `COc1cc(N2CCN(CCCCC(=O)N[C@H](C(=O)N3C[C@H](O)C[C@@H]3C(=O)NCc3ccc(-c4scnc4C)cc3)C(C)(C)C)CC2)ccc1Nc1ncc(Cl)c(Nc2ccccc2N(C)S(C)(=O)=O)n1` [Compound 6, (2R,4R)-1-((S)-2-(5-(4-(4-((5-chloro-4-((2-(N-methylmethylsulfonamido)phenyl)amino)pyrimidin-2-yl)amino)-3-methoxyphenyl)piperazin-1-yl)pentanamido)3,3-dimethylbutanoyl)4-hydroxy-N-(4-(4-methylthiazol-5-yl)benzyl)pyrrolidin-2-carboxamide], the “DTC” value in the experiment on EGFR^del19+T790M+C797S is recorded as “+ (Protein degradation 20~80%)”. On EGFR^L858R+T790M+C797S, the “LTC” value is reported as “− (Protein degradation < 20%)”.

Regarding `COc1cc(N2CCC(N3CCN(CCCCC(=O)N[C@H](C(=O)N4C[C@H](O)C[C@@H]4C(=O)NCc4ccc(-c5scnc5C)cc4)C(C)(C)C)CC3)CC2)ccc1Nc1ncc(Cl)c(Nc2ccccc2N(C)S(C)(=O)=O)n1` [Compound 7, (2R,4R)-1-((S)-2-(5-(4-(1-(4-((5-chloro-4-((2-(N-methylmethylsulfonamido)phenyl)amino)pyrimidin-2-yl)amino)-3-methoxyphenyl)piperidin-4-yl)piperazin-1-yl)pentanamido)-3,3-dimethylbutanoyl)-4-hydroxy-N-(4-(4-methylthiazol-5-yl)benzyl)pyrrolidin-2-carboxamide], in the experiment with EGFR^del19+T790M+C797S, the “DTC” value is listed as “+ (Protein degradation 20~80%)”. In addition, the “LTC” value on EGFR^L858R+T790M+C797S is given as “− (Protein degradation < 20%)”.
